According to the supplement of paper PMC11061612:

How the values were obtained:
Experiment in all cases: Bliss excess, mean over the matrix (fraction); higher = more synergy
[1] = tested on: ST486 (Burkitt's Lymphoma)
In short: (§1)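 After 24 hours at 37°C and 5% CO2 in 1536-well plates, cells in DMEM/F12 or RPMI plus 10% FBS received two-drug dose matrices for 72 hours. Viability came from CellTiter-Glo 2.0 luminescence and was scaled as inhibition, anchored at 0 by vehicle wells and at 1 by blank wells. Combination Emax is taken as the second-highest inhibition in the matrix, and Bliss excess as the observed combination effect less EA + EB − EA·EB, with EA and EB the single-agent effects.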

[2] = tested on: KY821 (Acute Myeloid Leukemia)
In short: as §1

[3] = tested on: PC-3 (Prostate Carcinoma)
In short: as §1

[4] = tested on: CW-2 (Colorectal Carcinoma)
In short: as §1

[5] = tested on: NCI-H661 (Non-Small Cell Lung Carcinoma)
In short: as §1

[6] = tested on: SNU-398 (Hepatocellular Carcinoma)
In short: as §1

[7] = tested on: NCI-H520 (Squamous Cell Lung Carcinoma)
In short: as §1

[8] = tested on: SUP-B15 (B-Lymphoblastic Leukemia)
In short: as §1

[9] = tested on: 8505C (Thyroid Gland Carcinoma)
In short: as §1

G-361 (Melanoma) = tested on: G-361 (Melanoma)
In short: as §1

[10] = tested on: KMS-12-BM (Plasma Cell Myeloma)
In short: as §1

NCI-H2731 (Mesothelioma) = tested on: NCI-H2731 (Mesothelioma)
In short: as §1

[11] = tested on: SK-GT-2 (Gastric Carcinoma)
In short: as §1

[12] = tested on: ESO51 (Esophageal Adenocarcinoma)
In short: as §1

[13] = tested on: NCI-H526 (Small Cell Lung Carcinoma)
In short: as §1

[14] = tested on: NCI-H3122 (Lung Adenocarcinoma)
In short: as §1

[15] = tested on: KP-3 (Pancreatic Carcinoma)
In short: as §1

[16] = tested on: HCC1187 (Breast Carcinoma)
In short: as §1

[17] = tested on: NCI-H929 (Plasma Cell Myeloma)
In short: as §1

[18] = tested on: CHSA8926 (Chondrosarcoma)
In short: as §1

Structure (SMILES) | Bliss excess [1] | Bliss excess [2] | Bliss excess [3] | Bliss excess [4] | Bliss excess [5] | Bliss excess [6] | Bliss excess [7] | Bliss excess [8] | Bliss excess [9] | Bliss excess (G-361 (Melanoma)) | Bliss excess [10] | Bliss excess (NCI-H2731 (Mesothelioma)) | Bliss excess [11] | Bliss excess [12] | Bliss excess [13] | Bliss excess [14] | Bliss excess [15] | Bliss excess [16] | Bliss excess [17] | Bliss excess [18]
CC1(C)CCC(CN2CCN(c3ccc(C(=O)NS(=O)(=O)c4ccc(NCC5CCOCC5)c([N+](=O)[O-])c4)c(Oc4cnc5[nH]ccc5c4)c3)CC2)=C(c2ccc(Cl)cc2)C1 [Venetoclax] + C1CN(CCC1(C(=O)N[C@@H](CCO)C2=CC=C(C=C2)Cl)N)C3=NC=NC4=C3C=CN4 [Capivasertib] (first compound max 1 µM, 7x7, partner max 3 µM) | -0.0348 | 0.0303 | -0.046 | -0.0259 | -0.0218 | -0.0081 | -0.0275 | 0.0077 | -0.027 | -0.0618 | 0.0559 | -0.066 | -0.0211 | -0.0379 | -0.0095 | -0.0592 | -0.0257 | -0.0227 | -0.0099 | -0.0364
CC1(C)CCC(CN2CCN(c3ccc(C(=O)NS(=O)(=O)c4ccc(NCC5CCOCC5)c([N+](=O)[O-])c4)c(Oc4cnc5[nH]ccc5c4)c3)CC2)=C(c2ccc(Cl)cc2)C1 [Venetoclax] + C=CCn1c(=O)c2cnc(Nc3ccc(N4CCN(C)CC4)cc3)nc2n1-c1cccc(C(C)(C)O)n1 [AZD1775] (first compound max 1 µM, partner max 1 µM) | 0.108 | -0.0104 | 0.0286 | -0.0091 | -0.0588 | 0.0035 | -0.0031 | 0.0509 | -0.0083 | -0.0214 | 0.0356 | -0.0295 | 0.0014 | -0.0404 | -0.0183 | -0.0505 | -0.0085 | -0.0522 | 0.0499 | -0.0333
CC1(C)CCC(CN2CCN(c3ccc(C(=O)NS(=O)(=O)c4ccc(NCC5CCOCC5)c([N+](=O)[O-])c4)c(Oc4cnc5[nH]ccc5c4)c3)CC2)=C(c2ccc(Cl)cc2)C1 [Venetoclax] + CCN(CCO)CCCOc1ccc2c(Nc3cc(CC(=O)Nc4cccc(F)c4)[nH]n3)ncnc2c1 [AZD2811] (first compound max 1 µM, 7x7, partner max 1 µM) | -0.0299 | 0.002 | -0.0668 | 0.0269 | -0.0105 | -0.0599 | 0.0319 | 0.0132 | -0.0133 | -0.0163 | 0.0773 | -0.021 | 0.0136 | -0.0104 | 0.138 | -0.0229 | -0.0316 | -0.0165 | 0.101 | 0.0042
CC1(C)CCC(CN2CCN(c3ccc(C(=O)NS(=O)(=O)c4ccc(NCC5CCOCC5)c([N+](=O)[O-])c4)c(Oc4cnc5[nH]ccc5c4)c3)CC2)=C(c2ccc(Cl)cc2)C1 [Venetoclax] + CN(C)CCCOc1ccc(-c2ccc3ncc4c(c3c2)n(C2CCOCC2)c(=O)n4C)cn1 [AZD0156] (first compound max 1 µM, 7x7, partner max 1 µM) | 0.0106 | -0.0104 | -0.0363 | 0.0285 | 0.0037 | -0.0081 | -0.048 | -0.0392 | 0.0155 | -0.0123 | 0.0078 | -0.029 | 0.005 | -0.014 | 0.0393 | -0.0656 | -0.042 | -0.0071 | 0.0294 | -0.0249
CC1(C)CCC(CN2CCN(c3ccc(C(=O)NS(=O)(=O)c4ccc(NCC5CCOCC5)c([N+](=O)[O-])c4)c(Oc4cnc5[nH]ccc5c4)c3)CC2)=C(c2ccc(Cl)cc2)C1 [Venetoclax] + COc1cc(Nc2ncc3c(n2)-c2ccc(Cl)cc2C(c2c(F)cccc2OC)=NC3)ccc1C(=O)O [Alisertib] (first compound max 1 µM, 7x7, partner max 10 µM) | -0.133 | 0.0079 | -0.0536 | -0.0094 | -0.0206 | -0.0219 | -0.0425 | 0.0151 | 0.0151 | 0.0863 | 0.085 | -0.0311 | -0.0274 | -0.0192 | 0.194 | -0.0278 | -0.0376 | -0.0999 | 0.197 | -0.025
CC1(C)CCC(CN2CCN(c3ccc(C(=O)NS(=O)(=O)c4ccc(NCC5CCOCC5)c([N+](=O)[O-])c4)c(Oc4cnc5[nH]ccc5c4)c3)CC2)=C(c2ccc(Cl)cc2)C1 [Venetoclax] + C[C@@H]1COCCN1C2=NC(=NC(=C2)C3(CC3)[S@](=N)(=O)C)C4=C5C=CNC5=NC=C4 [AZD6738] (first compound max 1 µM, 7x7, partner max 10 µM) | -0.0369 | -0.0336 | -0.035 | 0.0258 | -0.0698 | -0.0662 | -0.0733 | 0.0383 | -0.0219 | -0.0132 | -0.012 | -0.0713 | 0.0388 | -0.0093 | 0.0144 | -0.0649 | -0.0227 | -0.0095 | -0.0567 | -0.0216
CC1(C)CCC(CN2CCN(c3ccc(C(=O)NS(=O)(=O)c4ccc(NCC5CCOCC5)c([N+](=O)[O-])c4)c(Oc4cnc5[nH]ccc5c4)c3)CC2)=C(c2ccc(Cl)cc2)C1 [Venetoclax] + C[C@@H](Nc1cc(F)cc(F)c1)c1cc(C(=O)N(C)C)cc2c(=O)cc(N3CCOCC3)oc12 [AZD8186] (first compound max 1 µM, 7x7, partner max 3 µM) | -0.0686 | 0.0235 | 0.0065 | -0.007 | -0.0241 | -0.0201 | -0.0637 | -0.0587 | -0.024 | 0.0075 | 0.0494 | -0.0484 | -0.0271 | 0.0204 | 0.033 | -0.0311 | -0.0376 | -0.0069 | -0.007 | 0.0214
CC1(C)CCC(CN2CCN(c3ccc(C(=O)NS(=O)(=O)c4ccc(NCC5CCOCC5)c([N+](=O)[O-])c4)c(Oc4cnc5[nH]ccc5c4)c3)CC2)=C(c2ccc(Cl)cc2)C1 [Venetoclax] + Cc1cc2ncnn2cc1Nc1ncc2c(n1)n(C1CCOCC1)c(=O)n2C [AZD7648] (first compound max 1 µM, 7x7, partner max 10 µM) | -0.0376 | 0.056 | -0.0245 | 0.0049 | -0.0345 | -0.0427 | 0.0114 | -0.0374 | -0.0088 | -0.0147 | 0.0378 | -0.0272 | -0.0053 | -0.0308 | 0.0079 | -0.0201 | -0.0358 | -0.0061 | 0.0418 | -0.0023
CC1(C)CCC(CN2CCN(c3ccc(C(=O)NS(=O)(=O)c4ccc(NCC5CCOCC5)c([N+](=O)[O-])c4)c(Oc4cnc5[nH]ccc5c4)c3)CC2)=C(c2ccc(Cl)cc2)C1 [Venetoclax] + Cn1cnc2c(F)c(Nc3ccc(Br)cc3Cl)c(C(=O)NOCCO)cc21 [Selumetinib] (first compound max 1 µM, 7x7, partner max 3 µM) | -0.141 | 0.0329 | -0.0484 | 0.0239 | -0.0243 | -0.0003 | -0.0351 | 0.108 | -0.0184 | -0.0154 | -0.0118 | -0.0525 | -0.0251 | -0.0106 | -0.011 | -0.0309 | -0.042 | -0.0161 | 0.027 | -0.0455
